Test system: SEM cells
Test: cell viability relative to DMSO control; higher = less cytotoxic
Conditions: 48 h
Outline: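 Before seeding, each leukemia line was adapted for at least four passages in each medium. NOMO1 or SEM cells (500 cells/well) and P12-Ichikawa cells (1000 cells/well) went into 1536-well plates at 5 μl, then received library compounds in DMSO by pin dosing across 11 threefold concentrations, 47 μM to 0.79 nM. Readout was CellTiter-Glo One luminescence after 48 h at 37°C, and viability is given as a per-plate percentage of DMSO wells, with cell-free wells as background.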

[1] = HPLM + 10% dialyzed FBS, 0.000781 µM
[2] = HPLM + 10% dialyzed FBS, 0.00234 µM
[3] = HPLM + 10% dialyzed FBS, 0.00702 µM
[4] = HPLM + 10% dialyzed FBS, 0.0211 µM
[5] = HPLM + 10% dialyzed FBS, 0.0632 µM
[6] = HPLM + 10% dialyzed FBS, 0.19 µM
[7] = HPLM + 10% dialyzed FBS, 0.569 µM
[8] = HPLM + 10% dialyzed FBS, 1.71 µM
[9] = HPLM + 10% dialyzed FBS, 5.12 µM
[10] = HPLM + 10% dialyzed FBS, 15.4 µM
[11] = HPLM + 10% dialyzed FBS, 46.1 µM
[12] = RPMI 5 mM glucose + 10% FBS, 0.000781 µM
[13] = RPMI 5 mM glucose + 10% FBS, 0.00234 µM
[14] = RPMI 5 mM glucose + 10% FBS, 0.00702 µM
[15] = RPMI 5 mM glucose + 10% FBS, 0.0211 µM
[16] = RPMI 5 mM glucose + 10% FBS, 0.0632 µM
[17] = RPMI 5 mM glucose + 10% FBS, 0.19 µM
[18] = RPMI 5 mM glucose + 10% FBS, 0.569 µM
[19] = RPMI 5 mM glucose + 10% FBS, 1.71 µM
[20] = RPMI 5 mM glucose + 10% FBS, 5.12 µM
[21] = RPMI 5 mM glucose + 10% FBS, 15.4 µM
[22] = RPMI 5 mM glucose + 10% FBS, 46.1 µM
[23] = RPMI 5 mM glucose + 10% dialyzed FBS, 0.000781 µM
[24] = RPMI 5 mM glucose + 10% dialyzed FBS, 0.00234 µM
[25] = RPMI 5 mM glucose + 10% dialyzed FBS, 0.00702 µM
[26] = RPMI 5 mM glucose + 10% dialyzed FBS, 0.0211 µM
[27] = RPMI 5 mM glucose + 10% dialyzed FBS, 0.0632 µM
[28] = RPMI 5 mM glucose + 10% dialyzed FBS, 0.19 µM
[29] = RPMI 5 mM glucose + 10% dialyzed FBS, 0.569 µM
[30] = RPMI 5 mM glucose + 10% dialyzed FBS, 1.71 µM
[31] = RPMI 5 mM glucose + 10% dialyzed FBS, 5.12 µM
[32] = RPMI 5 mM glucose + 10% dialyzed FBS, 15.4 µM
[33] = RPMI 5 mM glucose + 10% dialyzed FBS, 46.1 µM

| SMILES | cell viability [1] [%] | cell viability [2] [%] | cell viability [3] [%] | cell viability [4] [%] | cell viability [5] [%] | cell viability [6] [%] | cell viability [7] [%] | cell viability [8] [%] | cell viability [9] [%] | cell viability [10] [%] | cell viability [11] [%] | cell viability [12] [%] | cell viability [13] [%] | cell viability [14] [%] | cell viability [15] [%] | cell viability [16] [%] | cell viability [17] [%] | cell viability [18] [%] | cell viability [19] [%] | cell viability [20] [%] | cell viability [21] [%] | cell viability [22] [%] | cell viability [23] [%] | cell viability [24] [%] | cell viability [25] [%] | cell viability [26] [%] | cell viability [27] [%] | cell viability [28] [%] | cell viability [29] [%] | cell viability [30] [%] | cell viability [31] [%] | cell viability [32] [%] | cell viability [33] [%] |
| --- | --- | --- | --- | --- | --- | --- | --- | --- | --- | --- | --- | --- | --- | --- | --- | --- | --- | --- | --- | --- | --- | --- | --- | --- | --- | --- | --- | --- | --- | --- | --- | --- | --- |
| CCC(=O)O[C@@]1([C@@H](C)C[C@H]2[C@@H]3CCC/4=C/C(=O)/C=C\[C@]4(C)[C@@]3(F)[C@@H](O)C[C@]12C)C(=O)CCl | 86 | 92.1 | 91.3 | 57.7 | 71.1 | 69.8 | 57 | 72.3 | 61.8 | 66.4 | 63.4 | 88.5 | 95.4 | 95.9 | 51.3 | 67.8 | 62.6 | 65.1 | 66.1 | 67.6 | 56 | 66.9 | 85.2 | 81 | 91.4 | 49.4 | 63.3 | 64.6 | 64.8 | 54.1 | 64.1 | 55.6 | 40.7 |
| O=C(O)c1ccc2cc(-c3ccc(O)c(C45CC6CC(CC(C6)C4)C5)c3)ccc2c1 |  |  |  |  |  |  |  |  |  |  |  | 120 | 129 | 114 | 118 | 118 | 93.1 | 41.7 | 19.8 | 10.5 | 9.46 | 8.21 |  |  |  |  |  |  |  |  |  |  |  |
| CC(C)C[C@H](CN)CC(=O)O | 110 | 116 | 105 | 111 | 97.6 | 98.8 | 115 | 102 | 119 | 37.9 | 93.9 | 102 | 102 | 98.7 | 105 | 93.9 | 88.7 | 104 | 113 | 103 | 41.2 | 92.1 | 101 | 105 | 107 | 103 | 110 | 102 | 113 | 109 | 97.1 | 38.8 | 110 |
| CC(C)(C)OC(=O)CN(Cc1ccc(Cl)cc1)Cc1ccc([N+](=O)[O-])s1 | 110 | 111 | 101 | 110 | 110 | 115 | 109 | 114 | 92.8 | 91.5 | 43.7 | 98.2 | 103 | 87.5 | 94.4 | 103 | 108 | 90.2 | 110 | 99.9 | 95.2 | 26.1 | 90.7 | 97.2 | 94.3 | 99.8 | 92.8 | 99.1 | 97.3 | 94 | 91.2 | 95.1 | 21.1 |

From the supplement of paper PMC11451515
